# From ChEMBL document CHEMBL4715885, “Novel dual LSD1/HDAC6 inhibitors for the treatment of multiple myeloma” (Bioorg Med Chem Lett, 2021)
# The source made the active and inactive calls. No cut-off for these calls is given here.
# How the values were obtained:
# [1] = Stability in mouse liver microsomes assessed as parent compound remaining measured after 30 mins; format: ADME, Microsome; conditions: liver microsomes, read-out: Stabilty
# [2] = molecular target: T1, Lysine-specific histone demethylase 1A (Homo sapiens, UniProt O60341); test: Inhibition of LSD1 (unknown origin)
# [3] = molecular target: T2, Protein deacetylase HDAC6 (Homo sapiens, UniProt Q9UBN7); test: Inhibition of human HDAC6 (unknown origin) using RHKKAc as substrate by fluorescence method; conditions: read-out: IC50
# T2 sequence (Q9UBN7 whole entry): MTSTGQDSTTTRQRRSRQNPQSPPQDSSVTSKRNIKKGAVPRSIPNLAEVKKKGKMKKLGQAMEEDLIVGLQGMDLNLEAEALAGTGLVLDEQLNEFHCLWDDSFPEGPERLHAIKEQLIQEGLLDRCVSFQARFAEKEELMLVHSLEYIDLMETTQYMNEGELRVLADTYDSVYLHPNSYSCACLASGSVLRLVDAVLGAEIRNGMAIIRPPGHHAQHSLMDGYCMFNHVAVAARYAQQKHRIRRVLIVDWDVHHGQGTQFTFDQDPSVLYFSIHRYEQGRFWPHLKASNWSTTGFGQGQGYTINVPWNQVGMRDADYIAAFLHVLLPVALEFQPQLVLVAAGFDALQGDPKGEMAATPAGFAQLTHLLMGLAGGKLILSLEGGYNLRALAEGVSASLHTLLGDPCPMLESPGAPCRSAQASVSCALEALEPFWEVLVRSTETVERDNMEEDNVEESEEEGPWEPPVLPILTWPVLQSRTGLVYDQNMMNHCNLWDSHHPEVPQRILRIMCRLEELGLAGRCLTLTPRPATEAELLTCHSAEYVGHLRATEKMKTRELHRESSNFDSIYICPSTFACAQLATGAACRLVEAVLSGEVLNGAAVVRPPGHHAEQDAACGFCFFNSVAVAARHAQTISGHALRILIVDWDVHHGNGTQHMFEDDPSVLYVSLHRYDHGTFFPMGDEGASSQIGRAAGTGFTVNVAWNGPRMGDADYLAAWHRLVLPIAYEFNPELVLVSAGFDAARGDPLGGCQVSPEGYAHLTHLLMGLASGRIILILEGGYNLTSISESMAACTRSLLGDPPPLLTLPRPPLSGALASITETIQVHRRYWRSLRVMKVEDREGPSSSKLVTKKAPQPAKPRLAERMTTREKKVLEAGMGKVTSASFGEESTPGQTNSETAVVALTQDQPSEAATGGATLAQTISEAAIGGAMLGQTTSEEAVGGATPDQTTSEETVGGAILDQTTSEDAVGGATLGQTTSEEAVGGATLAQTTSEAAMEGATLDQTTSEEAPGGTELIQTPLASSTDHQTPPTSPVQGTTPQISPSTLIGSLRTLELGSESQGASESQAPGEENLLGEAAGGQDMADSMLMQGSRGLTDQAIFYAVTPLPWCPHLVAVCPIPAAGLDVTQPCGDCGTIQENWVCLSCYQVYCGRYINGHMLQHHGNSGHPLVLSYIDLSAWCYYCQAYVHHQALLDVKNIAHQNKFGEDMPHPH
# [4] = Stability in human liver microsomes assessed as parent compound remaining measured after 30 mins; format: ADME, Microsome; conditions: liver microsomes, read-out: Stabilty
# [5] = molecular target: Histone deacetylase 1 (Homo sapiens) (UniProt Q13547); test: Inhibition of human HDAC1 at 1uM using RHKKAc as substrate by fluorescence method relative to control
# Histone deacetylase 1 (Homo sapiens), sequence (Q13547 whole entry): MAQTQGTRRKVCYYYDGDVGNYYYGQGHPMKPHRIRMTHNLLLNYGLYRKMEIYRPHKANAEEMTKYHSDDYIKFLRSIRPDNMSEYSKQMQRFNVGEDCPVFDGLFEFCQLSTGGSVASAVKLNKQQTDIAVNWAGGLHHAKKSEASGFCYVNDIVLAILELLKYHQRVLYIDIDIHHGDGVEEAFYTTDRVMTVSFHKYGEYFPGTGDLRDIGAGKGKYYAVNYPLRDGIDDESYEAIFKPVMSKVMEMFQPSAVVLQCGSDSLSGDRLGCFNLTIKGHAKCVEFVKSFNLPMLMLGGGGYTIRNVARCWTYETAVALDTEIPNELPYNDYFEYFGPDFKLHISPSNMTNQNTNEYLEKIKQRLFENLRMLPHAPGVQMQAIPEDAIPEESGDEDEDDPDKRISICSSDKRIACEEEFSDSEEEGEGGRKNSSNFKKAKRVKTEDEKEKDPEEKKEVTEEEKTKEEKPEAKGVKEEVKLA
# [6] = system: MM1.S; test: Antiproliferative activity against human MM1.S cells assessed as reduction in cell viability after 144 hrs; format: functional, cell-based
# [7] = system: MM1.S; test: Antitumour activity against human MM1.S cells xenografted in SCID mouse assessed as tumour growth inhibition at 25 mg/kg, po for 12 days relative to control; format: functional; conditions: 288 h, time 12 day, read-out: TGI
# [8] = molecular target: T1, Lysine-specific histone demethylase 1A; test: Inhibition of LSD1 in human MM1.S cells assessed as modulation of p21 mRNA expression at 0.5 uM after 6 to 24 hrs by qRT-PCR analysis; format: cell-based; conditions: time lower 6.0 hrs, time upper […]
# [9] = molecular target: T3, Protein deacetylase HDAC6 (Homo sapiens) (UniProt Q9UBN7); test: Inhibition of HDAC6 in human MM1.S cells assessed as modulation of p21 mRNA expression at 0.5 uM after 6 to 24 hrs by qRT-PCR analysis; format: cell-based; conditions: time lower 6.0 hrs, time upper […]
# T3 sequence (whole entry): T2 sequence (Q9UBN7 whole entry)
# [10] = molecular target: T1, Lysine-specific histone demethylase 1A; test: Inhibition of LSD1 in human MM1.S cells assessed as modulation of c-Myc mRNA expression at 0.5 uM after 6 to 24 hrs by qRT-PCR analysis; format: cell-based; conditions: time lower 6.0 hrs, time upper […]
# [11] = molecular target: T3, Protein deacetylase HDAC6 (Homo sapiens); test: Inhibition of HDAC6 in human MM1.S cells assessed as modulation alpha-tubulin acetylation at 100 to 500 nM after 1 to 3 hrs by Western blot analysis; format: cell-based; conditions: dose 100-500 nM, time 1-3 hrs
# [12] = molecular target: T1, Lysine-specific histone demethylase 1A; test: Inhibition of LSD1 in human MM1.S cells assessed as modulation alpha-tubulin acetylation at 100 to 500 nM after 1 to 3 hrs by Western blot analysis; format: cell-based; conditions: dose 100-500 nM, time 1-3 hrs
# [13] = molecular target: T3, Protein deacetylase HDAC6 (Homo sapiens); test: Inhibition of HDAC6 in human MM1.S cells assessed as modulation of c-Myc mRNA expression at 0.5 uM after 6 to 24 hrs by qRT-PCR analysis; format: cell-based; conditions: time lower 6.0 hrs, time upper […]
# [14] = system: MM1.S; test: Antitumour activity against human MM1.S cells xenografted in SCID mouse assessed as tumour growth inhibition at 50 mg/kg, […] for 12 days relative to control; format: functional; conditions: 288 h, time 12 day, read-out: TGI
Structure (SMILES),remaining at 0.5 h [1] [%],remaining at 0.5 h [4] [%],inhibition [5] [%],EC50 [6] [nM],IC50 ([2]; read-out: IC50) [nM],IC50 [3] [nM],further results
O=C(NO)c1ccc(CCCN2CCC(CN[C@H]3C[C@@H]3c3ccc(-c4ccc(F)cc4)cc3)CC2)cc1 (racemic),75,92,9.74,–,821,59,–
O=C(NO)c1ccc(CCCN2CCC(CN[C@H]3C[C@@H]3c3ccc(OCc4ccc(F)cc4)cc3)CC2)cc1 (racemic),56,79,-1.79,–,4,12,–
O=C(O)c1ccc(CN2CCC(CN[C@@H]3C[C@H]3c3ccccc3)CC2)cc1 [GSK2879552],–,–,–,–,–,–,inhibition in vivo at 25 mg/kg [7]: 40%
O=C(NO)c1ccc(CCCN2CCC(CN[C@H]3C[C@@H]3c3ccc(-c4ccc(C(F)(F)F)nc4)cc3)CC2)cc1 (racemic),85,79,33.5,–,19,100,–
O=C(NO)c1ccc(CCCN2CCC(CN[C@H]3C[C@@H]3c3ccc(-c4ccc(Cl)cc4)cc3)CC2)cc1 (racemic),81,77,23.6,–,2,19,–
N#Cc1ccc(-c2ccc([C@H]3C[C@@H]3NCC3CCN(CCCc4ccc(C(=O)NO)cc4)CC3)cc2)cc1 (racemic),75,76,–,–,32,–,–
CN(C)CCNC(=O)c1ccc([C@H]2C[C@@H]2NCC2CCN(CCCc3ccc(C(=O)NO)cc3)CC2)cc1 (racemic),36,40,58.1,–,22,130,–
COc1ccc([C@H]2C[C@@H]2NCC2CCN(CCCc3ccc(C(=O)NO)cc3)CC2)cc1 (racemic),91,74,46.7,–,6,38,–
O=C(NO)c1ccc(CCCN2CCC(CN[C@H]3C[C@@H]3c3ccc(C(=O)N4CCOCC4)cc3)CC2)cc1 (racemic),82,89,47.6,–,22,–,–
O=C(NO)c1ccc(CCCN2CCC(CN[C@H]3C[C@@H]3c3ccc(F)cc3)CC2)cc1 (racemic),66,54,12.7,–,6,51,–
O=C(NO)c1ccc(CCCN2CCC(CN[C@H]3C[C@@H]3c3ccc(C(=O)N4CCCCC4)cc3)CC2)cc1 (racemic),72,65,53.9,–,23,–,–
Cn1ccc(-c2ccc([C@H]3C[C@@H]3NCC3CCN(CCCc4ccc(C(=O)NO)cc4)CC3)cc2)cc1=O (racemic),72,73,59.4,–,21,46,–
COc1ccc([C@H]2C[C@@H]2NCc2cn3c(n2)CN(CCCc2ccc(C(=O)NO)cc2)CC3)cc1 (racemic),< 5,73,26.6,–,1100,28,–

# Second part, led by results:
remaining at 0.5 h [1] [%],remaining at 0.5 h [4] [%],inhibition [5] [%],EC50 [6] [nM],Structure (SMILES),IC50 ([2]; read-out: IC50) [nM],IC50 [3] [nM],further results
32,72,–,–,O=C(NO)c1ccc(CCCN2CCc3cc(CN[C@H]4C[C@@H]4c4ccc(F)cc4)ccc3C2)cc1 (racemic),–,–,–
< 5,84,0.7,25,O=C(NO)c1ccc(CCCN2CC(CN[C@H]3C[C@@H]3c3ccccc3)C2)cc1 (racemic),29,184,–
95,88,-0.22,> 10000,O=C(NO)c1csc(CCCN2CCC(CN[C@H]3C[C@@H]3c3ccccc3)CC2)n1 (racemic),26,> 10000,–
–,–,2.06,–,O=C(NO)c1ccc(CCCN2CCC(CN[C@H]3C[C@@H]3c3ccccc3)CC2)cc1 [listing 1 of 2 here],–,–,–
76,78,6.85,> 10000,O=C(NO)c1coc(CCCN2CCC(CN[C@H]3C[C@@H]3c3ccccc3)CC2)n1 (racemic),26,> 10000,–
66,77,41.6,7,Cn1cc(-c2ccc([C@H]3C[C@@H]3NCC3CCN(CCCc4ccc(C(=O)NO)cc4)CC3)cc2)cn1 (racemic),43,66,–
77,82,35.4,11,Cc1noc(C)c1-c1ccc([C@H]2C[C@@H]2NCC2CCN(CCCc3ccc(C(=O)NO)cc3)CC2)cc1 (racemic),59,58,–
50,51,–,4,O=C(NO)c1ccc(CCCN2CCC(CN[C@H]3C[C@@H]3c3ccccc3)CC2)cc1 [listing 2 of 2 here],–,–,–
68,77,50.7,28,O=C(NO)c1ccc(CCN2CCC(CN[C@H]3C[C@@H]3c3ccccc3)CC2)cc1 (racemic),15,490,–
–,–,18.4,–,O=C(NO)c1ccc(CCCN2CCC(CN[C@H]3C[C@@H]3c3ccccc3)CC2)cc1 (racemic),–,–,inhibition [8]: Active; inhibition [9]: Active; inhibition [10]: Active; inhibition [11]: Active; inhibition [12]: Active; inhibition [13]: Active
87,90,10.7,63,O=C(NO)c1cnc(CCCN2CCC(CN[C@H]3C[C@@H]3c3ccccc3)CC2)s1 (racemic),22,517,–
53,63,12.9,–,O=C(NO)c1ccc(CN2CCC(CN[C@H]3C[C@@H]3c3ccccc3)CC2)cc1 (racemic),–,–,–
26,38,57.6,3,O=C(NO)c1ccc(CCCN2CCC(CN[C@@H]3C[C@H]3c3ccccc3)CC2)cc1,–,–,–
77,93,–,0.85,O=C(CCCCCCNC(=O)c1cnc(N(c2ccccc2)c2ccccc2)nc1)NO [RICOLINOSTAT],–,–,IC50 [2]: Not Active; inhibition in vivo at 50 mg/kg [14]: 36%
80,63,8.36,> 10000,O=C(O)c1ccc(CCCN2CCC(CN[C@H]3C[C@@H]3c3ccccc3)CC2)cc1 (racemic),–,> 10000,–
–,–,8.37,48,CN(CC1CCN(CCCc2ccc(C(=O)NO)cc2)CC1)[C@H]1C[C@@H]1c1ccccc1 (racemic),465,–,–
